Consider one compound from ChEMBL document CHEMBL1671685, “Complete nucleotide sequence and comparative analysis of pPR9, a 41.7-kilobase conjugative staphylococcal multiresistance plasmid conferring high-level mupirocin resistance” (2010).

Each structure is given as a SMILES string. Some results are limits rather than exact numbers.

The subject of this experiment is Staphylococcus aureus. Put plainly: Antibacterial activity against methicillin-resistant Staphylococcus aureus harboring 41.7-kilobase conjugative staphylococcal multiresistance plasmid pPR9 conferring high-level mupirocin resistance. It counts as functional.

One may read the MIC as the lowest concentration that inhibits growth of the organism. `C/C(=C\C(=O)OCCCCCCCCC(=O)O)C[C@@H]1OC[C@H](C[C@@H]2O[C@H]2[C@@H](C)[C@H](C)O)[C@@H](O)[C@H]1O` [MUPIROCIN]: the MIC is no less than 1020 µg/mL.
